Results from ChEMBL document CHEMBL1201862, “PubChem BioAssay data set” (2004).
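In this assay, cells in 96-well plates receive the compound at five concentrations for 48 hours. Endpoints are linearly interpolated between the surrounding concentrations. GI50 = concentration required for 50% inhibition of growth.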 The source made the active and inactive calls. Cut-off read from the data, not from the text of the source: active = GI50 up to about 1.1 µM and inactive = higher.

Assays:
Experiment in all cases: growth of human tumour cells (NCI), 48 h
786-0 = tested on: 786-0
A549 = tested on: A549
ACHN = tested on: ACHN
BT-549 = tested on: BT-549
CAKI-1 = tested on: CAKI-1
CCRF-CEM = tested on: CCRF-CEM
COLO 205 = tested on: COLO 205
DU-145 = tested on: DU-145
EKVX = tested on: EKVX
HCC 2998 = tested on: HCC 2998
HCT-116 = tested on: HCT-116
HCT-15 = tested on: HCT-15
HOP-62 = tested on: HOP-62
HOP-92 = tested on: HOP-92
HT-29 = tested on: HT-29
Hs-578T = tested on: Hs-578T
IGROV-1 = tested on: IGROV-1
K562 = tested on: K562
KM12 = tested on: KM12
LOX IMVI = tested on: LOX IMVI
M14 = tested on: M14
MCF7 = tested on: MCF7
MDA-MB-231 = tested on: MDA-MB-231
MDA-MB-435 = tested on: MDA-MB-435
MDA-N = tested on: MDA-N
MOLT-4 = tested on: MOLT-4
Malme-3M = tested on: Malme-3M
NCI-H226 = tested on: NCI-H226
NCI-H23 = tested on: NCI-H23
NCI/ADR-RES = tested on: NCI/ADR-RES
OVCAR-3 = tested on: OVCAR-3
OVCAR-4 = tested on: OVCAR-4
OVCAR-5 = tested on: OVCAR-5
OVCAR-8 = tested on: OVCAR-8
PC-3 = tested on: PC-3
RPMI-8226 = tested on: RPMI-8226
RXF 393 = tested on: RXF 393
SF-268 = tested on: SF-268
SF-295 = tested on: SF-295
SF-539 = tested on: SF-539
SK-MEL-28 = tested on: SK-MEL-28
SK-MEL-2 = tested on: SK-MEL-2
SK-OV-3 = tested on: SK-OV-3
SN12C = tested on: SN12C
SNB-19 = tested on: SNB-19
SNB-75 = tested on: SNB-75
SR = tested on: SR
SW-620 = tested on: SW-620
T47D = tested on: T47D
TK-10 = tested on: TK-10
U-251 = tested on: U-251
UACC-257 = tested on: UACC-257
UACC-62 = tested on: UACC-62
UO-31 = tested on: UO-31
HL-60 = tested on: HL-60
NCI-H460 = tested on: NCI-H460
NCI-H522 = tested on: NCI-H522
SK-MEL-5 = tested on: SK-MEL-5

In the case of `Fc1cccc(C2SCc3nc4cc5ccccc5cc4n32)c1` (stereo not drawn), the GI50 (786-0) is reported as 69.3 µM (inactive), the GI50 (A549) is reported as > 100 µM (inactive) and the GI50 (ACHN) is reported as > 100 µM (inactive). The GI50 (BT-549) was > 100 µM (inactive), the GI50 (CAKI-1) was 68.9 µM (inactive) and the GI50 (CCRF-CEM) was > 100 µM (inactive). For the same molecule, the GI50 (COLO 205) was > 100 µM (inactive), the GI50 (DU-145) was > 100 µM (inactive) and the GI50 (EKVX) was > 100 µM (inactive). The GI50 (HCC 2998) was > 100 µM (inactive), the GI50 (HCT-116) was > 100 µM (inactive) and the GI50 (HCT-15) was greater than 100 µM. The GI50 (HOP-62) was 41.5 µM (inactive), the GI50 (HOP-92) was 21 µM (inactive) and the GI50 (HT-29) was > 100 µM (inactive). For the same molecule, the GI50 (Hs-578T) was > 100 µM (inactive), the GI50 (IGROV-1) was > 100 µM (inactive) and the GI50 (K562) was > 100 µM (inactive). The GI50 (KM12) was > 100 µM (inactive), the GI50 (LOX IMVI) was > 100 µM (inactive) and the GI50 (M14) was > 100 µM (inactive). For the same molecule, the GI50 (MCF7) was > 100 µM (inactive), the GI50 (MDA-MB-231) was > 100 µM (inactive) and the GI50 (MDA-MB-435) was > 100 µM (inactive). For the same molecule, the GI50 (MDA-N) was > 100 µM (inactive), the GI50 (MOLT-4) was > 100 µM (inactive) and the GI50 (Malme-3M) was > 100 µM (inactive). The GI50 (NCI-H226) was > 100 µM (inactive), the GI50 (NCI-H23) was > 100 µM (inactive) and the GI50 (NCI/ADR-RES) was > 100 µM (inactive). For the same molecule, the GI50 (OVCAR-3) was > 100 µM (inactive), the GI50 (OVCAR-4) was 90.8 µM (inactive) and the GI50 (OVCAR-5) was > 100 µM (inactive). For the same molecule, the GI50 (OVCAR-8) was > 100 µM (inactive), the GI50 (PC-3) was > 100 µM (inactive) and the GI50 (RPMI-8226) was > 100 µM (inactive). For the same molecule, the GI50 (RXF 393) was > 100 µM (inactive), the GI50 (SF-268) was > 100 µM (inactive) and the GI50 (SF-295) was > 100 µM (inactive). The GI50 (SF-539) was > 100 µM (inactive), the GI50 (SK-MEL-28) was > 100 µM (inactive) and the GI50 (SK-MEL-2) was > 100 µM (inactive). The GI50 (SK-OV-3) was > 100 µM (inactive), the GI50 (SN12C) was 53.3 µM (inactive) and the GI50 (SNB-19) was > 100 µM (inactive). For the same molecule, the GI50 (SNB-75) was 93.1 µM (inactive), the GI50 (SR) was > 100 µM (inactive) and the GI50 (SW-620) was > 100 µM (inactive). The GI50 (T47D) was > 100 µM (inactive), the GI50 (TK-10) was > 100 µM (inactive) and the GI50 (U-251) was > 100 µM (inactive). The GI50 (UACC-257) was > 100 µM (inactive), the GI50 (UACC-62) was > 100 µM (inactive) and the GI50 (UO-31) was > 100 µM (inactive).

`Clc1cccc(-c2sc(-c3cccs3)cc2Cc2cccs2)c1` was tested, and the GI50 (786-0) was > 10 µM (inactive), the GI50 (A549) was > 10 µM (inactive) and the GI50 (ACHN) was > 10 µM (inactive). For the same molecule, the GI50 (BT-549) was > 10 µM (inactive), the GI50 (CAKI-1) was > 10 µM (inactive) and the GI50 (CCRF-CEM) was > 10 µM (inactive). For the same molecule, the GI50 (COLO 205) was > 10 µM (inactive), the GI50 (DU-145) was > 10 µM (inactive) and the GI50 (EKVX) was > 10 µM (inactive). For the same molecule, the GI50 (HCC 2998) was > 10 µM (inactive), the GI50 (HCT-116) was > 10 µM (inactive) and the GI50 (HCT-15) was 2.79 µM. The GI50 (HL-60) was > 10 µM (inactive), the GI50 (HOP-62) was > 10 µM (inactive) and the GI50 (HOP-92) was > 10 µM (inactive). For the same molecule, the GI50 (HT-29) was > 10 µM (inactive), the GI50 (Hs-578T) was > 10 µM (inactive) and the GI50 (IGROV-1) was > 10 µM (inactive). For the same molecule, the GI50 (K562) was > 10 µM (inactive), the GI50 (KM12) was > 10 µM (inactive) and the GI50 (LOX IMVI) was > 10 µM (inactive). For the same molecule, the GI50 (M14) was > 10 µM (inactive), the GI50 (MCF7) was 3.71 µM (inactive) and the GI50 (MDA-MB-231) was 9.84 µM (inactive). The GI50 (MDA-MB-435) was > 10 µM (inactive), the GI50 (MDA-N) was > 10 µM (inactive) and the GI50 (MOLT-4) was > 10 µM (inactive). The GI50 (Malme-3M) was > 10 µM (inactive), the GI50 (NCI-H226) was > 10 µM (inactive) and the GI50 (NCI-H23) was > 10 µM (inactive). The GI50 (NCI-H460) was > 10 µM (inactive), the GI50 (NCI-H522) was > 10 µM (inactive) and the GI50 (NCI/ADR-RES) was > 10 µM (inactive). The GI50 (OVCAR-4) was > 10 µM (inactive), the GI50 (OVCAR-8) was > 10 µM (inactive) and the GI50 (PC-3) was > 10 µM (inactive). The GI50 (RPMI-8226) was > 10 µM (inactive), the GI50 (RXF 393) was > 10 µM (inactive) and the GI50 (SF-268) was > 10 µM (inactive). For the same molecule, the GI50 (SF-295) was > 10 µM (inactive), the GI50 (SF-539) was > 10 µM (inactive) and the GI50 (SK-MEL-28) was > 10 µM (inactive). The GI50 (SK-MEL-5) was > 10 µM (inactive), the GI50 (SK-OV-3) was > 10 µM (inactive) and the GI50 (SN12C) was > 10 µM (inactive). The GI50 (SNB-19) was > 10 µM (inactive), the GI50 (SNB-75) was > 10 µM (inactive) and the GI50 (SR) was > 10 µM (inactive). For the same molecule, the GI50 (SW-620) was > 10 µM (inactive), the GI50 (T47D) was 0.74 µM (active) and the GI50 (TK-10) was > 10 µM (inactive). The GI50 (UACC-257) was > 10 µM (inactive), the GI50 (UACC-62) was > 10 µM (inactive) and the GI50 (UO-31) was > 10 µM (inactive).
